The values below come from ChEMBL document CHEMBL2406915, “Antimalarial and cytotoxic activities of chiral triamines” (Bioorg Med Chem Lett, 2013).

The nature of data set [1]: Toxicity index, ratio of ED50 for human KB cells to ED50 for […] Plasmodium falciparum 3D7. The settings on record: KB cells versus Plasmodium falciparum 3D7, read-out: Ratio ED50. The data set is classed as cell-based.
Data set [2] in a line: Cytotoxicity against human KB cells. The format is cell-based. The note with it: read-out: ED50 (the source's name).
For a further data set, the system named is Plasmodium falciparum. Put plainly: Antimalarial activity against […] Plasmodium falciparum 3D7. The format is functional, organism-based. The settings on record: for EC50: read-out: ED50 (the source's name).

In brackets after ≈: the same amount, converted by molar mass.

With `CNC[C@H](Cc1ccc2ccccc2c1)NC[C@@H](Cc1ccc2ccccc2c1)NCCc1ccc(Cl)c(Cl)c1`, the selectivity ratio in data set [1] worked out at 23. In data set [2], the CC50 came out at 5.53 µg/mL (≈ 9.69 µM). The EC50 with Plasmodium falciparum worked out at 0.24 µg/mL (≈ 0.421 µM).

For the compound `CCOc1ccc(CCN[C@H](CN[C@@H](CNC)CC2CCCCC2)Cc2ccc3ccccc3c2)cc1`, the selectivity ratio in data set [1] was 19.3. Moreover, in data set [2], the CC50 came out at 3.1 µg/mL (≈ 6.18 µM). Further, the EC50 in the data set on Plasmodium falciparum came out at 0.16 µg/mL (≈ 0.319 µM).

With `CNC[C@H](Cc1ccc2ccccc2c1)NC[C@H](Cc1ccc2ccccc2c1)NCC(C)c1ccc(CC(C)C)cc1` (stereo not given in full), the selectivity ratio in data set [1] turned out to be 11.6. In data set [2], the CC50 was 2.09 µg/mL (≈ 3.65 µM). Also, in the data set with Plasmodium falciparum, the EC50 amounted to 0.18 µg/mL (≈ 0.315 µM).

Take `CNC[C@@H](Cc1ccccc1)NC[C@@H](Cc1ccc2ccccc2c1)NCC1CCC(C)CC1` (stereo not given in full): the selectivity ratio in data set [1] was 8.23. In addition, the CC50 in data set [2] is 1.73 µg/mL (≈ 3.78 µM). Also, the EC50 in the data set with Plasmodium falciparum stood at 0.22 µg/mL (≈ 0.481 µM).

`CNC[C@@H](Cc1ccccc1)NC[C@H](Cc1ccc2ccccc2c1)NCC1(c2ccccc2)CC1`: the selectivity ratio in data set [1] is 2.36. For the same compound, the CC50 in data set [2] came out at 0.52 µg/mL (≈ 1.09 µM). The EC50 with Plasmodium falciparum is 0.22 µg/mL (≈ 0.461 µM).

Regarding `CNC[C@@H](CC1CCCCC1)NC[C@@H](Cc1ccc2ccccc2c1)NCCc1ccc(Cl)c(Cl)c1`, the selectivity ratio in data set [1] worked out at 19.2. Besides, the CC50 in data set [2] was 4.23 µg/mL (≈ 8.03 µM). For the same compound, the EC50 in the data set with Plasmodium falciparum was 0.22 µg/mL (≈ 0.418 µM).

Take `CNC[C@@H](Cc1ccccc1)NC[C@@H](Cc1ccc2ccccc2c1)NCC1(c2ccccc2)CC1`: the selectivity ratio in data set [1] turned out to be 5.46. In data set [2], the CC50 turned out to be 1.53 µg/mL (≈ 3.2 µM). Moreover, the EC50 in the data set with Plasmodium falciparum came to 0.28 µg/mL (≈ 0.586 µM).

On to `CNC[C@@H](Cc1ccc2ccccc2c1)NC[C@H](Cc1ccc2ccccc2c1)NCC1(c2ccccc2)CC1`, for which, in data set [1], the selectivity ratio worked out at 4.93. For the same compound, the CC50 in data set [2] came to 1.43 µg/mL (≈ 2.71 µM). In addition, the EC50 in the data set on Plasmodium falciparum was found to be 0.29 µg/mL (≈ 0.549 µM).

In the case of `CNC[C@@H](CC1CCCCC1)NC[C@@H](Cc1ccc2ccccc2c1)NCC(C)c1ccc(CC(C)C)cc1` (stereo not given in full), the selectivity ratio in data set [1] amounted to 24.1. Besides, the CC50 in data set [2] amounted to 7.01 µg/mL (≈ 13.3 µM). Besides, the EC50 in the data set with Plasmodium falciparum was 0.29 µg/mL (≈ 0.549 µM).

`CNC[C@H](Cc1ccc2ccccc2c1)NC[C@H](Cc1ccc2ccccc2c1)NCCC1CCCCC1`: in data set [1], the selectivity ratio amounted to 88.5. The CC50 in data set [2] was 1.77 µg/mL (≈ 3.49 µM). For the same compound, the EC50 with Plasmodium falciparum is 0.02 µg/mL (≈ 0.0394 µM).

`CNC[C@H](Cc1ccc2ccccc2c1)NC[C@@H](Cc1ccc2ccccc2c1)NCC1(c2ccccc2)CC1`: the selectivity ratio in data set [1] came to 32. For the same compound, the CC50 in data set [2] worked out at 1.6 µg/mL (≈ 3.03 µM). Besides, the EC50 with Plasmodium falciparum came to 0.05 µg/mL (≈ 0.0947 µM).

On to `CNC[C@H](Cc1ccc2ccccc2c1)NC[C@H](Cc1ccc2ccccc2c1)NCC1(c2ccccc2)CC1`, for which the selectivity ratio in data set [1] is 43.5. For the same compound, the CC50 in data set [2] was 2.18 µg/mL (≈ 4.13 µM). The EC50 with Plasmodium falciparum came out at 0.05 µg/mL (≈ 0.0947 µM).

As to `CNC[C@H](Cc1ccc2ccccc2c1)NC[C@@H](Cc1ccc2ccccc2c1)NCCC1CCCCC1`, in data set [1], the selectivity ratio came to 17.7. Also, in data set [2], the CC50 was 1.6 µg/mL (≈ 3.15 µM). Also, the EC50 with Plasmodium falciparum was found to be 0.09 µg/mL (≈ 0.177 µM).

For the compound `CNC[C@H](Cc1ccc2ccccc2c1)NC[C@@H](Cc1ccc2ccccc2c1)NCC1CCC(C)CC1` (stereo not given in full), in data set [1], the selectivity ratio was found to be 20.3. Besides, in data set [2], the CC50 came out at 2.03 µg/mL (≈ 4 µM). Further, the EC50 in the data set on Plasmodium falciparum amounted to 0.1 µg/mL (≈ 0.197 µM).

For the compound `CNC[C@@H](CC1CCCCC1)NC[C@H](Cc1ccc2ccccc2c1)NCC1CCC(C)CC1` (stereo not given in full), the selectivity ratio in data set [1] was determined as 69. Moreover, in data set [2], the CC50 is 6.9 µg/mL (≈ 14.9 µM). In the data set on Plasmodium falciparum, the EC50 turned out to be 0.1 µg/mL (≈ 0.216 µM).

Turning to `CNC[C@@H](CC1CCCCC1)NC[C@H](Cc1ccc2ccccc2c1)NCC1(c2ccccc2)CC1`, in data set [1], the selectivity ratio was 15.7. Further, the CC50 in data set [2] came to 1.71 µg/mL (≈ 3.53 µM). For the same compound, the EC50 in the data set on Plasmodium falciparum is 0.11 µg/mL (≈ 0.227 µM).

On to `CNC[C@@H](CC1CCCCC1)NC[C@H](Cc1ccc2ccccc2c1)NCCC1CCCCC1`, for which the CC50 in data set [2] is 0.11 µg/mL (≈ 0.237 µM). In addition, in the data set on Plasmodium falciparum, the EC50 amounted to 0.11 µg/mL (≈ 0.237 µM).

Turning to `CCOc1ccc(CCN[C@H](CN[C@H](CNC)Cc2ccc3ccccc3c2)Cc2ccc3ccccc3c2)cc1`, the selectivity ratio in data set [1] is 26. Also, the CC50 in data set [2] turned out to be 3.23 µg/mL (≈ 5.92 µM). Also, the EC50 in the data set on Plasmodium falciparum turned out to be 0.12 µg/mL (≈ 0.22 µM).

Take `CNC[C@H](Cc1ccc2ccccc2c1)NC[C@@H](Cc1ccc2ccccc2c1)NCC(C)c1ccc(CC(C)C)cc1` (stereo not given in full): the selectivity ratio in data set [1] amounted to 13. Besides, in data set [2], the CC50 worked out at 1.71 µg/mL (≈ 2.99 µM). Further, the EC50 with Plasmodium falciparum is 0.13 µg/mL (≈ 0.227 µM).

Turning to `CNC[C@@H](CC1CCCCC1)NC[C@@H](Cc1ccc2ccccc2c1)NCCC1CCCCC1`, the selectivity ratio in data set [1] is 11.3. In addition, the CC50 in data set [2] was determined as 1.59 µg/mL (≈ 3.43 µM). For the same compound, the EC50 in the data set with Plasmodium falciparum is 0.14 µg/mL (≈ 0.302 µM).

One may read the IC50 as the point on the concentration scale where inhibition reaches its midpoint. For the compound `C[C@H]1[C@H](OC(=O)CCC(=O)O)O[C@@H]2O[C@@]3(C)CC[C@H]4[C@H](C)CC[C@@H]1[C@@]24OO3` [ARTESUNATE], half-maximal inhibition in the data set with Plasmodium falciparum (IC50) was put at 0.002 µg/mL (≈ 0.0052 µM).
